Reference: patent US6160004A, “C-10 carbon-substituted artemisinin-like trioxane compounds having antimalarial, antiproliferative and antitumor activities” (priority 1998, dated 2000)
Read-outs that look alike come from different tables or passages of the source.

Key:
IGROVI = experiment: NCI 60 cell line panel screening assay (SRB), IGROVI; type: cell-based; details: 48 h, read-out: Log10 TGI
[1] = test system: murine keratinocyte cell line PE; experiment: Growth inhibition of murine keratinocytes (MTT); type: cell-based, murine (SENCAR mice); details: 100 nanomolar
Method: To determine the inhibitory effect of the compositions of the present invention on cell proliferation, screening assays were performed on a murine keratinocyte cell line PE. Cell line PE was chosen for its particular sensitivity to the induction of ornithine decarboxylase (ODC) activity by the extensively characterized tumor promoter TPA. […] PE cell culture medium consisted of Eagle's minimal essential medium without calcium chloride (Whittaker Bioproducts, Walkersville, Mass.) supplemented with 8% chelexed fetal calf serum and 1% antibiotic-antimycotic (Gibco BRL) and the addition of CaCl2 to 0.05 mM Ca^++.
MTT [3-(4,5-dimethylthiazol-2-yl)-2,5-diphenyltetraxolium bromide] was purchased from Sigma Chemical Co. (St. Louis, Mo.), and TPA was supplied by L.C. Services (Woburn, Mass.). L-[^14 C]omithine (56 μCi/mol) was from Amersham/Searle Corp. (Arlington Heights, Ill.). Chemical solvents used in all assays of biological activity were of the highest grade commercially available.
Growth Inhibition. Growth curves, shown in FIGS. 1-5, for PE cells treated with calcitriol and the C-10 carbon-substituted dimers 38, 39, 43, 44, 45, 47 and 48, and monomer 27 generated by assay for the reduction of the tetrazolium-based compound MTT, see Charmichael, et al., Cancer Res., 47:936-942 (1987). […] PE cells were seeded at a density of 5,000 cells/well in 50 μL of medium into 96-well microtiter plates. Twelve hours later, the medium was removed, and cells were treated with 100 μL of fresh medium into which the appropriate amount of calcitriol or analog dissolved in dimethyl sulfoxide (DMSO) had been added, with the concentration of DMSO held constant at 0.1%. […] At 24-hour intervals following the initial treatment of the cells with compounds, 0.1 mg (50 μL of a 2 mg/mL solution) of MTT was added to each well. After 4 hours, the MTT was removed and DMSO added to dissolve the blue formazan dye. Using a microtiter plate reader, the A505 was then determined and cell number calculated from blank-subtracted absorbance values.

HCC-2998 = experiment: NCI 60 cell line panel screening assay (SRB), HCC-2998; type: cell-based; details: Homo sapiens, HCC 2998, 48 h, read-out: Log10 LC50 (converted)
SK-MEL-5 = experiment: NCI 60 cell line panel screening assay (SRB), SK-MEL-5; type: cell-based; details: Homo sapiens; SK-MEL-5, melanoma, 48 h; read-out: Log10 GI50 (converted)
Stability (hydrolysis) = type: physicochemical
malaria = experiment: In vivo antimalarial activity; design: species or system rodents; details: sc
60 cell line panel = details: 60 line panel, earlier studies; cited from earlier work
[2] = test system: Ehrlich ascites tumor (EAT) cells; details: MTT, growth inhibition; cited from earlier work
P. berghei = details: P. berghei-infected mice, parasitemia 90 percent suppressed; cited from earlier work
[3] = test system: P. vivax and P. falciparum; details: cited from earlier work
[4] = test system: P. falciparum, two Hanian strains; details: P. falciparum in vitro; cited from earlier work
[5] = test system: P. falciparum Camp (chloroquine-susceptible) and Smith (chloroquine-resistant) strains; details: P. falciparum in vitro; cited from earlier work
[6] = cited from earlier work

In the case of `CC1CCC2C(C)C(CC(=O)c3cccc(C(=O)CC4OC5OC6(C)CCC7C(C)CCC(C4C)C57OO6)c3)OC3OC4(C)CCC1C32OO4` (stereo not drawn) [Dimer 39], the IC (TGI) (IGROVI) is reported as > 100 µM and the “antiproliferative activity relative to calcitriol” value [1] is reported as “at least as antiproliferative as calcitriol”.
In the case of `C[C@H]1[C@@H](F)O[C@@H]2O[C@@]3(C)CC[C@H]4[C@H](C)CC[C@@H]1[C@@]24OO3` [Compound VI, 10β-Fluoro-10-deoxoartemisinin], the CC50 (HCC-2998) is reported as > 100 µM, the GI50 (SK-MEL-5) is reported as 0.49 µM and the stability (Stability (hydrolysis)) is reported as “stable crystalline solid”.
For `C[C@@H]1CC[C@H]2[C@@H](C)C(=O)O[C@@H]3O[C@@]4(C)CC[C@@H]1[C@]32OO4` [Artemisinin], the ED50 (malaria; read-out: ED50 subcutaneous) is given as 3 mg/kg, the ED90 (malaria; read-out: ED90 subcutaneous) is given as 8.5 mg/kg and the anticancer activity (60 cell line panel) is given as “very little anticancer activity”. For the same compound, the IC50 [2] was 29.8 µM, the SD90 (P. berghei) was 6.20 mg/kg and the “clinical outcome in malaria patients” value [3] was “clinical cure of all patients”. For the same compound, the “clinical outcome in malaria patients” value ([3]; listed as artemisinin) was “used successfully in many thousand malaria patients”, the “potency compared to chloroquine” value [4] was “comparable” and the “potency compared to mefloquine” value [5] was “comparable”. The solubility in water [6] was “insolubility in water”.
